Assay results as given in patent US20220177508A1, “C10-Cyclic Substituted 13-Membered Macrolides and Uses Thereof” (Zikani Therapeutics, Inc., priority 2018, published 2022).
Values after ≈ are worked out from the molar mass of the structure shown.

What was measured:
Type in all cases: cell-based
K. pneumoniae MP-648 = experiment: Broth dilution MIC determination (CLSI), K. pneumoniae MP-648; conditions: Klebsiella pneumoniae, MP648; strain MP-648, broth dilution
S. aureus MP-12 = experiment: Broth dilution MIC determination (CLSI), S. aureus MP-12; conditions: Staphylococcus aureus, MP12; strain MP-12, broth dilution
P. aeruginosa MP-3 = experiment: Broth dilution MIC determination (CLSI), P. aeruginosa MP-3; conditions: Pseudomonas aeruginosa, MP3; strain MP-3, broth dilution
E. coli MP-4 = experiment: Broth dilution MIC determination (CLSI), E. coli MP-4; conditions: Escherichia coli, MP4; strain MP-4, broth dilution; read-out: MIC E. coli MP-4
A. baumannii MP-15 = experiment: Broth dilution MIC determination (CLSI), A. baumannii MP-15; conditions: Acinetobacter baumannii, MP15; strain MP-15, broth dilution; read-out: MIC A. baumanii MP-15
K. pneumoniae MP-546 = experiment: Broth dilution MIC determination (CLSI), K. pneumoniae MP-546; conditions: Klebsiella pneumoniae, MP546; strain MP-546, broth dilution

Row | MIC (K. pneumoniae MP-648) [µg/mL] | MIC (S. aureus MP-12) [µg/mL] | MIC (P. aeruginosa MP-3) [µg/mL] | MIC (E. coli MP-4) [µg/mL] | MIC (A. baumannii MP-15) [µg/mL] | MIC (K. pneumoniae MP-546) [µg/mL] | Structure (SMILES)
1 | > 32 | > 32 | > 32 | 4 to 32 (≈ 5.98 to 47.8 µM) | > 32 | > 32 | CO[C@]1(C)C[C@@H](C)CN(C)[C@H](C2CN(C(=O)CCCN(C)C)C2)COC(=O)C(C)(C)C(=O)[C@H](C)[C@H]1O[C@@H]1O[C@H](C)C[C@H](N(C)C)[C@H]1O [Compound 139, (3R,6R,8R,9R,10R)-9-(((2S,3R,4S,6R)-4-(dimethylamino)-3-hydroxy-6-methyltetrahydro-2H-pyran-2-yl)oxy)-3-(1-(4-(dimethylamino)butanoyl)azetidin-3-yl)-8-methoxy-4,6,8,10,12,12-hexamethyl-1-oxa-4-azacyclotridecane-11,13-dione]
2 | > 32 | > 32 | > 32 | < 4 | > 32 | 4 to 32 (≈ 5.76 to 46 µM) | CO[C@]1(C)C[C@@H](C)CN(C)[C@H](C2CN(C(=O)CCN(C)CC3CC3)C2)COC(=O)C(C)(C)C(=O)[C@H](C)[C@H]1O[C@@H]1O[C@H](C)C[C@H](N(C)C)[C@H]1O [Compound 144, (3R,6R,8R,9R,10R)-3-(1-(3-((cyclopropylmethyl)(methyl)amino)propanoyl)azetidin-3-yl)-9-(((2S,3R,4S,6R)-4-(dimethylamino)-3-hydroxy-6-methyltetrahydro-2H-pyran-2-yl)oxy)-8-methoxy-4,6,8,10,12,12-hexamethyl-1-oxa-4-azacyclotridecane-11,13-dione]

Second part, the compound before the results:

Row | Structure (SMILES) | MIC (K. pneumoniae MP-648) [µg/mL] | MIC (S. aureus MP-12) [µg/mL] | MIC (P. aeruginosa MP-3) [µg/mL] | MIC (E. coli MP-4) [µg/mL] | MIC (A. baumannii MP-15) [µg/mL] | MIC (K. pneumoniae MP-546) [µg/mL]
3 | CO[C@]1(C)C[C@@H](C)CN(C)[C@H](C2CN(C(=O)CN3CCCC3)C2)COC(=O)C(C)(C)C(=O)[C@H](C)[C@H]1O[C@@H]1O[C@H](C)C[C@H](N(C)C)[C@H]1O [Compound 138, (3R,6R,8R,9R,10R)-9-(((2S,3R,4S,6R)-4-(dimethylamino)-3-hydroxy-6-methyltetrahydro-2H-pyran-2-yl)oxy)-8-methoxy-4,6,8,10,12,12-hexamethyl-3-(1-(2-(pyrrolidin-1-yl)acetyl)azetidin-3-yl)-1-oxa-4-azacyclotridecane-11,13-dione] | 4 to 32 (≈ 6 to 48 µM) | 4 to 32 (≈ 6 to 48 µM) | > 32 | < 4 | > 32 | < 4
4 | CO[C@]1(C)C[C@@H](C)CN(C)[C@H](C2CN(CCC(C)C)C2)COC(=O)C(C)(C)C(=O)[C@H](C)[C@H]1O[C@@H]1O[C@H](C)C[C@H](N(C)C)[C@H]1O [Compound 51, (3R,6R,8R,9R,10R)-9-(((2S,3R,4S,6R)-4-(dimethylamino)-3-hydroxy-6-methyltetrahydro-2H-pyran-2-yl)oxy)-3-(1-isopentylazetidin-3-yl)-8-methoxy-4,6,8,10,12,12-hexamethyl-1-oxa-4-azacyclotridecane-11,13-dione] | 4 to 32 (≈ 6.39 to 51.1 µM) | 4 to 32 (≈ 6.39 to 51.1 µM) | > 32 | < 4 | 4 to 32 (≈ 6.39 to 51.1 µM) | < 4
5 | CO[C@]1(C)C[C@@H](C)CN(C)[C@H](C2CN(Cc3ccn(C)n3)C2)COC(=O)C(C)(C)C(=O)[C@H](C)[C@H]1O[C@@H]1O[C@H](C)C[C@H](N(C)C)[C@H]1O [Compound 16, (3R,6R,8R,9R,10R)-9-(((2S,3R,4S,6R)-4-(dimethylamino)-3-hydroxy-6-methyltetrahydro-2H-pyran-2-yl)oxy)-8-methoxy-4,6,8,10,12,12-hexamethyl-3-(1-((1-methyl-1H-pyrazol-3-yl)methyl)azetidin-3-yl)-1-oxa-4-azacyclotridecane-11,13-dione] | 4 to 32 (≈ 6.16 to 49.2 µM) | 4 to 32 (≈ 6.16 to 49.2 µM) | > 32 | < 4 | > 32 | 4 to 32 (≈ 6.16 to 49.2 µM)
